Here are results for 68 molecules from patent publication US20100120789A1, “Compound” (priority 2005, published 2010).

Consider `O=C(CC12CC3CC(CC(C3)C1)C2)N1CCc2sccc2C1`, for which the melting point – broadly, the temperature of the solid-liquid transition – was in the range of 121 to 125 °C. Take `CN(Cc1cccs1)C(=O)C12CC3CC(CC(O)(C3)C1)C2`: the melting point fell in the range of 88 to 91 °C. Next, `CN(CCc1ccccn1)C(=O)CC12CC3CC(CC(C3)C1)C2`: 59 to 60 °C; `O=C(CC12CC3CC(CC(C3)C1)C2)NCc1ccc(-c2ccccn2)s1`: 187 to 188 °C; `CN(Cc1cn(C23CC4CC(CC(C4)C2)C3)nn1)Cc1cccs1`: 66 to 68 °C. `O=S(=O)(Cc1cn(C23CC4CC(CC(C4)C2)C3)nn1)c1cc(Cl)ccc1Cl` gave a melting point of 198 to 199 °C. For `CN(CC(=O)C12CC3CC(CC(C3)C1)C2)Cc1cccs1.Cl`, the melting point lay within 201 to 203 °C. For `COc1cc2c(cc1OCc1ccccc1)CCN(C(=O)C13CC4CC(CC(C4)C1)C3)C2`, the melting point lay within 144 to 145 °C. With `COc1cc2c(cc1OCc1ccccc1)CCN(C(=O)CC13CC4CC(CC(C4)C1)C3)C2`, the melting point is 133 to 135 °C.

`COc1cc2c(cc1O)CCN(C(=O)C13CC4CC(CC(C4)C1)C3)C2` came in with a melting point of 224 to 228 °C. Next, `COc1cc2c(cc1O)CCN(C(=O)CC13CC4CC(CC(C4)C1)C3)C2`: 169 to 172 °C; `COc1cc2c(cc1OC)CN(C(=O)C13CC4CC(CC(C4)C1)C3)CC2`: 151 to 155 °C.

Take `COc1cc2c(cc1OC)CN(C(=O)CC13CC4CC(CC(C4)C1)C3)CC2`: the melting point was in the range of 165 to 167 °C.

`Cc1nc2cc(NCC(=O)C3(C)CC3)ccc2s1` yielded a melting point of 116 to 120 °C. `O=C(NCc1ccc(Cl)cc1)C12CC3CC(CC(C3)C1)C2` gave a melting point of 150 to 153 °C. For `Cc1ccc(CNC(=O)C23CC4CC(CC(C4)C2)C3)cc1`, the melting point lay in the range of 137 to 140 °C. `O=C(CC12CC3CC(CC(C3)C1)C2)NCc1ccc(Cl)cc1` yielded a melting point of 166 to 168 °C. For `Cc1ccc(CNC(=O)CC23CC4CC(CC(C4)C2)C3)cc1`, the melting point was in the range of 139 to 142 °C. `CN(Cc1ccc(Cl)cc1)C(=O)CC12CC3CC(CC(C3)C1)C2` yielded a melting point of 75 to 76 °C. As to `CCN(Cc1cccs1)C(=O)C12CC3CC(CC(C3)C1)C2`, the melting point fell in the range of 103 to 105 °C. Take `O=C(N(Cc1cccs1)CC1CCCCC1)C12CC3CC(CC(C3)C1)C2`: the melting point lay within 112 to 115.5 °C. To `O=C(CC12CC3CC(CC(C3)C1)C2)N1CCN(c2ccccn2)CC1` belongs 134 to 136 °C. As for `CC(C)N(Cc1cccs1)C(=O)C12CC3CC(CC(C3)C1)C2`, the melting point lay within 156 to 158 °C. `CN(Cc1cccs1)C(=O)CSC12CC3CC(CC(C3)C1)C2` displayed a melting point of 51 to 53 °C. On to `O=C(N1CCN(Cc2ccc(Cl)cc2)CC1)C12CC3CC(CC(C3)C1)C2`, for which the melting point is 141.5 to 143 °C. To `Cc1cccc(CN2CCN(C(=O)C34CC5CC(CC(C5)C3)C4)CC2)c1` belongs 185 to 187 °C; to `CSc1ccc(CN(C)C(=O)C23CC4CC(CC(C4)C2)C3)s1`, 73 to 75.5 °C. Take `CN(Cc1cccs1)C(=O)CS(=O)(=O)C12CC3CC(CC(C3)C1)C2`: the melting point was 120 to 122 °C. In turn, `Cc1cccc(NC(=O)CS(=O)(=O)C23CC4CC(CC(C4)C2)C3)n1` registered a melting point of 126 to 129 °C.

`CNC(=O)c1ccc(CN(C)C(=O)C23CC4CC(CC(C4)C2)C3)s1` had a melting point of 211 to 211.5 °C. Molecule `Cc1c(C(=O)CSCc2ccc(Cl)cc2)sc2ccc(Cl)cc12` displayed a melting point of 123 to 124 °C. Consider `CN(C)C(=O)c1ccc(CN(C)C(=O)C23CC4CC(CC(C4)C2)C3)s1`, for which the melting point lay in the range of 145 to 146 °C.

`CC(=O)Nc1ccc([S+]([O-])CC(=O)C23CC4CC(CC(C4)C2)C3)cc1` (centres unmarked) showed a melting point of 173.5 to 175.5 °C. In turn, `Cc1ccc(CNC(=O)C2CCN(C(=O)C34CC5CC(CC(C5)C3)C4)CC2)cc1` returned a melting point of 155.5 to 157 °C. Take `CC(C)(C)c1ccc(CS(=O)(=O)CC(=O)C23CC4CC(CC(C4)C2)C3)cc1`: the melting point was found to be 127.7 °C. `Cc1cccc(CS(=O)(=O)CC(=O)C23CC4CC(CC(C4)C2)C3)c1` yielded a melting point of 132.8 °C. As for `COC(=O)c1ccc(OCC(=O)C23CC4CC(CC(C4)C2)C3)cc1`, the melting point stood at 128.7 °C. Next, `COC(=O)c1cccc(OCC(=O)C23CC4CC(CC(C4)C2)C3)c1`: 84.5 °C; `O=C(NCc1ccccc1)c1ccc(OCC(=O)C23CC4CC(CC(C4)C2)C3)cc1`: 145.6 °C; `COC(=O)c1ccc(COCC(=O)C23CC4CC(CC(C4)C2)C3)cc1`: 88.7 °C. As to `O=C(Nc1ccccc1)c1ccc(OCC(=O)C23CC4CC(CC(C4)C2)C3)cc1`, the melting point was determined as 184.3 °C. Molecule `O=C(NCc1ccco1)c1ccc(OCC(=O)C23CC4CC(CC(C4)C2)C3)cc1` displayed a melting point of 162.2 °C. With `CN(Cc1ccc(Cl)s1)C(=O)CC12CC3CC(CC(C3)C1)C2`, the melting point is 73.5 to 75 °C. For the molecule `O=C(CC12CC3CC(CC(C3)C1)C2)N1CCN(C(=O)c2ccco2)CC1`, the melting point was in the range of 98 to 100 °C. Regarding `CC(=O)Nc1ccc(OCC(=O)C23CC4CC(CC(C4)C2)C3)cc1Cl`, the melting point fell in the range of 204 to 206 °C. `O=C(Cc1ccc(OCC(=O)C23CC4CC(CC(C4)C2)C3)cc1)Nc1ccccc1` displayed a melting point of 153.4 °C.

`CCCc1ccc(S(=O)(=O)NC23CC4CC(CC(C4)C2)C3)cc1` [STX1341, N-Adamantan-1-yl-4-propyl-benzenesulfonamide] showed a melting point of 178 to 178.5 °C. To `O=S(=O)(NC12CC3CC(CC(C3)C1)C2)c1cc(Cl)ccc1Cl` [STX1342, N-Adamantan-1-yl-2,5-dichloro-benzenesulfonamide] belongs 189 to 190 °C; to `Cc1c(Cl)cccc1S(=O)(=O)NC12CC3CC(CC(C3)C1)C2` [STX1343, N-Adamantan-1-yl-3-chloro-2-methyl-benzenesulfonamide], 197.5 to 198 °C. `O=S(=O)(NC12CC3CC(CC(C3)C1)C2)c1ccc(-c2ccccc2)cc1` [STX1344, Biphenyl-4-sulfonic acid adamantan-1-ylamide]: the melting point fell in the range of 205 to 205.5 °C. Next, `CCCc1ccc(S(=O)(=O)NCC23CC4CC(CC(C4)C2)C3)cc1` [STX1368, N-Adamantan-1-ylmethyl-4-propyl-benzenesulfonamide]: 148 to 149 °C; `O=S(=O)(NCC12CC3CC(CC(C3)C1)C2)c1cc(Cl)ccc1Cl` [STX1369, N-Adamantan-1-ylmethyl-2,5-dichloro-benzenesulfonamide]: 197 to 198 °C; `Cc1c(Cl)cccc1S(=O)(=O)NCC12CC3CC(CC(C3)C1)C2` [STX1370, N-Adamantan-1-ylmethyl-3-chloro-2-methyl-benzenesulfonamide]: 183 to 184 °C. For the molecule `O=S(=O)(NCC12CC3CC(CC(C3)C1)C2)c1ccc(-c2ccccc2)cc1` [STX1371, Biphenyl-4-sulfonic acid (adamantan-1-ylmethyl)-amide], the melting point was in the range of 188 to 189.5 °C.

Turning to `Cc1nc2c(NC(=O)C34CC5CC(CC(C5)C3)C4)c(C)ccc2s1` [STX1372, Adamantane-1-carboxylic acid (2,5-dimethyl-benzothiazol-4-yl)-amide], the melting point was in the range of 183.5 to 185 °C. Next, `Cc1nc2c(Cl)c(NC(=O)C34CC5CC(CC(C5)C3)C4)ccc2s1` [STX1373, Adamantane-1-carboxylic acid (4-chloro-2-methyl-benzothiazol-5-yl)-amide]: 183.5 to 185.5 °C.

Regarding `O=C(NCc1cccs1)C12CC3CC(CC(C3)C1)C2` [STX1374, Adamantane-1-carboxylic acid (thiophen-2-ylmethyl)-amide], the melting point lay in the range of 155 to 155.5 °C. `O=C(NCCc1cccs1)C12CC3CC(CC(C3)C1)C2` [STX1375, Adamantane-1-carboxylic acid (2-thiophen-2-yl-ethyl)-amide] registered a melting point of 123 to 126 °C. Turning to `O=S(=O)(NC12CC3CC(CC(C3)C1)C2)c1cccs1` [STX1573, Thiophene-2-sulfonic acid adamantan-1-ylamide], the melting point fell in the range of 129 to 131 °C. Consider `CC(C)(C)CC(=O)NCc1cccs1` [STX1639, 3,3-Dimethyl-N-thiophen-2-ylmethyl-butyramide], for which the melting point is 83 to 84 °C. Take `CC(C(=O)NCc1cccs1)(c1ccccc1)c1ccccc1` [STX1640, 2,2-Diphenyl-N-thiophen-2-ylmethyl-propionamide]: the melting point is 90 to 91 °C. As for `CC1(C(=O)NCc2cccs2)CC1` [STX1641, 1-Methyl-cyclopropanecarboxylic acid (thiophen-2-yl methyl)-amide], the melting point lay within 70 to 71 °C. With `CC1(C(=O)NCc2cccs2)CCCCC1` [STX1642, 1-Methyl-cyclohexanecarboxylic acid(thiophen-2-ylmethyl)-amide], the melting point lay in the range of 72 to 73 °C. `O=C(NCCc1cccs1)C12CC3CC(CC1C3)C2` [STX1656, Hexahydro-2,5-methano-pentalene-3a-carboxylic acid(2-thiophen-2-yl-ethyl)-amide] had a melting point of 113 to 114 °C. `CC12CC3CC(C)(C1)CC(C(=O)NCc1cccs1)(C3)C2` [STX1671, 3,5-Dimethyl-adamantane-1-carboxylic acid(thiophen-2-ylmethyl)-amide] displayed a melting point of 101 to 103 °C. Next, `CC12CC3CC(C)(C1)CC(C(=O)NCCc1cccs1)(C3)C2` [STX1672, 3,5-Dimethyl-adamantane-1-carboxylic acid(2-thiophen-2-yl-ethyl)-amide]: 131 to 132 °C; `CC(C)(C)C(=O)NCc1cccs1` [STX1673, 2,2-Dimethyl-N-thiophen-2-ylmethyl-propionamide]: 64 to 65 °C.

As to `CC(C)(C)C(=O)NCCc1cccs1` [STX1674, 2,2-Dimethyl-N-(2-thiophen-2-yl-ethyl)-propionamide], the melting point lay within 79 to 80 °C.
